Measurements reported in the NIST ThermoML archive (doi:10.1021/je400512u).

Assay: xn = mol fraction of the nth substance listed
Settings: 101 kPa, Liquid; for viscosity: Concentric cylinders viscometry; for speed of sound: Pulse-echo method; for mass density: Vibrating tube method

CCCCCCCO [heptan-1-ol] + C1COCCO1
Settings | mass density [kg/m3] | speed of sound [m/s] | viscosity [mPa·s]
298.15 K, x1 = 0.0505 | 1008.57 | 1339.3 | 1.217
298.15 K, x1 = 0.1 | 991.286 | 1333.2 | 1.247
298.15 K, x1 = 0.1501 | 975.785 | 1328.6 | 1.296
298.15 K, x1 = 0.2 | 961.05 | 1324.7 | 1.344
298.15 K, x1 = 0.25 | 947.06 | 1321.5 | 1.415
298.15 K, x1 = 0.2997 | 934.312 | 1319 | 1.5
298.15 K, x1 = 0.3502 | 922.561 | 1317.4 | 1.605
298.15 K, x1 = 0.4001 | 911.608 | 1316 | 1.713
298.15 K, x1 = 0.4498 | 901.275 | 1315.2 | 1.834
298.15 K, x1 = 0.4998 | 891.612 | 1314.9 | 2
298.15 K, x1 = 0.55 | 882.643 | 1314.8 | 2.169
298.15 K, x1 = 0.6004 | 874.251 | 1315.2 | 2.365
298.15 K, x1 = 0.6501 | 866.177 | 1316 | 2.593
298.15 K, x1 = 0.7002 | 858.585 | 1316.9 | 2.861
298.15 K, x1 = 0.7493 | 851.217 | 1318.2 | 3.154
298.15 K, x1 = 0.7999 | 844.345 | 1318.9 | 3.524
298.15 K, x1 = 0.85 | 837.74 | 1321.5 | 3.943
298.15 K, x1 = 0.8998 | 831.478 | 1323.2 | 4.464
298.15 K, x1 = 0.9498 | 825.31 | 1325.4 | 5.075
298.15 K, x1 = 1 | 819.73 | 1328.3 | 5.869
303.15 K, x1 = 0.0505 | 1003.12 | 1317.9 | 1.12
303.15 K, x1 = 0.1 | 985.996 | 1312.3 | 1.145
303.15 K, x1 = 0.1501 | 970.647 | 1308.1 | 1.188
303.15 K, x1 = 0.2 | 956.055 | 1304.6 | 1.229
303.15 K, x1 = 0.25 | 942.208 | 1301.8 | 1.291
303.15 K, x1 = 0.2997 | 929.584 | 1299.7 | 1.365
303.15 K, x1 = 0.3502 | 917.951 | 1298.4 | 1.455
303.15 K, x1 = 0.4001 | 907.108 | 1297.2 | 1.547
303.15 K, x1 = 0.4498 | 896.876 | 1296.6 | 1.653
303.15 K, x1 = 0.4998 | 887.314 | 1296.6 | 1.794
303.15 K, x1 = 0.55 | 878.474 | 1296.7 | 1.937
303.15 K, x1 = 0.6004 | 870.13 | 1297.3 | 2.104
303.15 K, x1 = 0.6501 | 862.139 | 1298.3 | 2.296
303.15 K, x1 = 0.7002 | 854.631 | 1299.3 | 2.521
303.15 K, x1 = 0.7493 | 847.338 | 1300.7 | 2.766
303.15 K, x1 = 0.7999 | 840.45 | 1301.7 | 3.073
303.15 K, x1 = 0.85 | 834.009 | 1304.3 | 3.419
303.15 K, x1 = 0.8998 | 827.706 | 1306.1 | 3.847
303.15 K, x1 = 0.9498 | 821.704 | 1308.3 | 4.346
303.15 K, x1 = 1 | 816.183 | 1311.3 | 4.989
308.15 K, x1 = 0.0505 | 997.647 | 1296.7 | 1.034
308.15 K, x1 = 0.1 | 980.695 | 1291.6 | 1.055
308.15 K, x1 = 0.1501 | 965.496 | 1287.8 | 1.093
308.15 K, x1 = 0.2 | 951.048 | 1284.7 | 1.129
308.15 K, x1 = 0.25 | 937.338 | 1282.2 | 1.183
308.15 K, x1 = 0.2997 | 924.84 | 1280.4 | 1.247
308.15 K, x1 = 0.3502 | 913.324 | 1279.4 | 1.324
308.15 K, x1 = 0.4001 | 902.591 | 1278.5 | 1.403
308.15 K, x1 = 0.4498 | 892.463 | 1278.2 | 1.497
308.15 K, x1 = 0.4998 | 882.999 | 1278.4 | 1.617
308.15 K, x1 = 0.55 | 874.248 | 1278.6 | 1.739
308.15 K, x1 = 0.6004 | 865.991 | 1279.4 | 1.881
308.15 K, x1 = 0.6501 | 858.083 | 1280.5 | 2.044
308.15 K, x1 = 0.7002 | 850.647 | 1281.7 | 2.234
308.15 K, x1 = 0.7493 | 843.436 | 1283.3 | 2.44
308.15 K, x1 = 0.7999 | 836.632 | 1284.4 | 2.696
308.15 K, x1 = 0.85 | 830.254 | 1287.2 | 2.985
308.15 K, x1 = 0.8998 | 824.01 | 1289 | 3.338
308.15 K, x1 = 0.9498 | 818.076 | 1291.4 | 3.747
308.15 K, x1 = 1 | 812.61 | 1294.5 | 4.27
313.15 K, x1 = 0.0505 | 992.162 | 1275.6 | 0.957
313.15 K, x1 = 0.1 | 975.379 | 1270.9 | 0.976
313.15 K, x1 = 0.1501 | 960.33 | 1267.6 | 1.009
313.15 K, x1 = 0.2 | 946.025 | 1264.9 | 1.041
313.15 K, x1 = 0.25 | 932.425 | 1262.8 | 1.088
313.15 K, x1 = 0.2997 | 920.079 | 1261.3 | 1.143
313.15 K, x1 = 0.3502 | 908.677 | 1260.6 | 1.209
313.15 K, x1 = 0.4001 | 898.054 | 1260 | 1.278
313.15 K, x1 = 0.4498 | 888.028 | 1259.9 | 1.361
313.15 K, x1 = 0.4998 | 878.663 | 1260.3 | 1.463
313.15 K, x1 = 0.55 | 870.001 | 1260.7 | 1.568
313.15 K, x1 = 0.6004 | 861.838 | 1262.1 | 1.691
313.15 K, x1 = 0.6501 | 854.006 | 1262.9 | 1.83
313.15 K, x1 = 0.7002 | 846.648 | 1264.3 | 1.991
313.15 K, x1 = 0.7493 | 839.512 | 1266 | 2.165
313.15 K, x1 = 0.7999 | 832.79 | 1267.4 | 2.38
313.15 K, x1 = 0.85 | 826.48 | 1270.6 | 2.62
313.15 K, x1 = 0.8998 | 820.289 | 1272.2 | 2.913
313.15 K, x1 = 0.9498 | 814.421 | 1274.6 | 3.25
313.15 K, x1 = 1 | 809.011 | 1277.7 | 3.677
318.15 K, x1 = 0.0505 | 986.663 | 1254.7 | 0.888
318.15 K, x1 = 0.1 | 970.046 | 1250.5 | 0.905
318.15 K, x1 = 0.1501 | 955.144 | 1247.5 | 0.934
318.15 K, x1 = 0.2 | 940.982 | 1245.2 | 0.964
318.15 K, x1 = 0.25 | 927.545 | 1243.5 | 1.003
318.15 K, x1 = 0.2997 | 915.295 | 1242.4 | 1.052
318.15 K, x1 = 0.3502 | 904.009 | 1242 | 1.109
318.15 K, x1 = 0.4001 | 893.497 | 1241.6 | 1.168
318.15 K, x1 = 0.4498 | 883.572 | 1241.7 | 1.241
318.15 K, x1 = 0.4998 | 874.304 | 1242.3 | 1.33
318.15 K, x1 = 0.55 | 865.728 | 1243 | 1.419
318.15 K, x1 = 0.6004 | 857.642 | 1244.1 | 1.526
318.15 K, x1 = 0.6501 | 849.902 | 1245.5 | 1.645
318.15 K, x1 = 0.7002 | 842.622 | 1247 | 1.783
318.15 K, x1 = 0.7493 | 835.561 | 1248.9 | 1.93
318.15 K, x1 = 0.7999 | 828.821 | 1250.6 | 2.114
318.15 K, x1 = 0.85 | 822.668 | 1253.3 | 2.313
318.15 K, x1 = 0.8998 | 816.551 | 1255.8 | 2.557
318.15 K, x1 = 0.9498 | 810.743 | 1258.4 | 2.835
318.15 K, x1 = 1 | 805.383 | 1261.1 | 3.186
323.15 K, x1 = 0.0505 | 981.158 | 1233.5 | 0.827
323.15 K, x1 = 0.1 | 964.707 | 1230.6 | 0.842
323.15 K, x1 = 0.1501 | 949.953 | 1228.1 | 0.867
323.15 K, x1 = 0.2 | 935.93 | 1226.2 | 0.893
323.15 K, x1 = 0.25 | 922.628 | 1224.8 | 0.928
323.15 K, x1 = 0.2997 | 910.503 | 1224 | 0.971
323.15 K, x1 = 0.3502 | 899.329 | 1223.9 | 1.021
323.15 K, x1 = 0.4001 | 888.925 | 1223.7 | 1.073
323.15 K, x1 = 0.4498 | 879.103 | 1224.1 | 1.136
323.15 K, x1 = 0.4998 | 869.929 | 1224.9 | 1.213
323.15 K, x1 = 0.55 | 861.446 | 1225.7 | 1.29
323.15 K, x1 = 0.6004 | 853.441 | 1227 | 1.383
323.15 K, x1 = 0.6501 | 845.785 | 1228.6 | 1.486
323.15 K, x1 = 0.7002 | 838.579 | 1230.3 | 1.604
323.15 K, x1 = 0.7493 | 831.593 | 1232.4 | 1.73
323.15 K, x1 = 0.7999 | 824.83 | 1234.3 | 1.883
323.15 K, x1 = 0.85 | 818.738 | 1236.9 | 2.053
323.15 K, x1 = 0.8998 | 812.671 | 1239.1 | 2.258
323.15 K, x1 = 0.9498 | 807.031 | 1241.8 | 2.489
323.15 K, x1 = 1 | 801.731 | 1245.1 | 2.777
